Results: the NIST ThermoML archive (doi:10.1016/j.jct.2015.08.014)

Test: xn = mol fraction of the nth substance listed
Conditions: 100 kPa, Liquid; for electrical conductivity: Alternating current cell with electrodes; for mass density: Vibrating tube method; for viscosity: Capillary tube (Ostwald / Ubbelohde) method

CCCC[N+]1(C)CCCC1.N#CN=C=[N-] [1-butyl-1-methylpyrrolidinium dicyanamide] + O=C1CCCO1
electrical conductivity [S/m]
Conditions	Frequency=0.0005 MHz	Frequency=0.001 MHz	Frequency=0.0015 MHz	Frequency=0.002 MHz	Frequency=0.0025 MHz	Frequency=0.003 MHz	Frequency=0.00347222 MHz	Frequency=0.01 MHz
298.15 K, x1 = 0.1449	–	–	–	–	–	–	–	2.51
298.15 K, x1 = 0.1859	–	–	–	–	–	–	–	2.68
298.15 K, x1 = 0.2493	–	–	–	–	–	–	–	2.614
298.15 K, x1 = 0.3029	–	–	–	–	–	–	–	2.54
298.15 K, x1 = 0.3845	–	–	–	–	–	–	–	2.36
298.15 K, x1 = 0.4985	–	–	–	–	–	–	–	2.08
298.15 K, x1 = 0.6954	–	–	–	–	–	–	–	1.68
298.15 K, x1 = 0.9013	–	–	–	–	–	–	–	1.39
298.15 K, x1 = 1	–	–	–	–	–	–	–	1.318
303.15 K, x1 = 0.0463	1.56	1.57	1.57	1.57	1.57	1.58	1.58	–
303.15 K, x1 = 0.0987	2.36	2.37	2.37	2.38	2.38	2.38	2.38	–
303.15 K, x1 = 0.1449	2.71	2.71	2.71	2.71	2.71	2.71	2.71	–
303.15 K, x1 = 0.1859	2.87	2.88	2.89	2.89	2.89	2.89	2.9	–
303.15 K, x1 = 0.2493	2.85	2.85	2.85	2.85	2.85	2.85	2.85	–
303.15 K, x1 = 0.3029	2.78	2.78	2.78	2.79	2.79	2.79	2.79	–
303.15 K, x1 = 0.3845	2.608	2.612	2.614	2.616	2.616	2.617	2.617	–
303.15 K, x1 = 0.4985	2.33	2.33	2.33	2.33	2.33	2.33	–	–
303.15 K, x1 = 0.6954	1.908	1.909	1.91	1.911	1.911	1.911	–	–
303.15 K, x1 = 0.9013	1.602	1.604	1.605	1.606	1.606	1.607	–	–
303.15 K, x1 = 1	1.525	1.526	1.526	1.527	1.527	1.527	–	–

Conditions	electrical conductivity, 303.15 K [S/m]	mass density, 298.15 K [kg/m3]	viscosity, 303.15 K [mPa·s]
x1 = 0.0463	1.58	–	–
x1 = 0.0987	2.38	1103.29	2.56
x1 = 0.1449	2.71	–	–
x1 = 0.1859	2.9	1087.38	3.64
x1 = 0.2493	2.86	–	–
x1 = 0.3029	2.79	1069.77	5.53
x1 = 0.3845	2.619	–	–
x1 = 0.4985	2.33	1047.53	9.91
x1 = 0.6954	1.912	1031.19	16.03
x1 = 0.9013	1.608	1018.43	23.88
x1 = 1	1.527	1013.45	28.53
